Marks after values point to notes of the source that are not given here.
Legend:
Naïve CD4+ T cells = assay: (g) T cell proliferation; assay type: cell-based; conditions: Homo sapiens, assay (g), read-out: IC50 for inhibition of T cell proliferation
Experimental: PBMCs from healthy subjects are separated from whole blood using a density gradient (Lymphoprep, Axis-Shield Healthcare). The lymphocyte fraction is first enriched for CD4+ T cells by negative magnetic cell sorting as per the manufacturer's instructions (Miltenyi Biotec 130-091-155). Naïve CD4+ T cells are then separated using positive magnetic selection of CD45RA+ cells using microbeads as per the manufacturer's instructions (130-045-901). Cells are plated at 2×10^5 cells per well in 100 μL RPMI/10% FBS on 96 well flat bottomed plate (Corning Costar). 25 μL of test compound are diluted to the appropriate concentration (8× final conc.) in normal medium and added to duplicate wells on the plate to achieve a dose response range of 0.03 ng/mL-250 ng/mL. DMSO is added as a negative control. Plates are allowed to pre-incubate for 2 hours before stimulation with 1 μg/mL anti-CD3 (OKT3; eBioscience). After 72 h, the medium in each well is replaced with 150 μL of fresh medium containing 10 μM BrdU (Roche). […] The reaction is stopped by addition of 50 μL of 1 M H2SO4, and read for absorbance at 450 nm on a plate reader (Varioskan® Flash, ThermoFisher Scientific). The IC50 is determined from the dose response curve.

[1] = tested on: adoptive transfer mouse model; assay: (D) Adoptive transfer in mice; assay type: in vivo, female SCID mice
Experimental: On Study day 0, female Balb/C mice are terminated and spleens obtained for CD45RB^high cell isolation (Using SCID IBD cell Separation protocol). Approximately 4×10^5 cells/mL CD45RB^high cells are then injected IP (100 μL/mouse) into female SCID animals. On study day 14, mice are weighed and randomized into treatment groups based on body weight. On Day 14 compounds are administered BID, via oral gavage, in a peanut oil vehicle at the dose levels outlined below and a dose volume of 5 mL/kg. Treatment continues until study day 42, at which point the animals are necropsied 4 hours after am administration. The colon length and weight is recorded and used as a secondary endpoint in the study as a measurement of colon oedema. The colon is then divided into six cross-sections, four of which are used for histopathology scoring (primary endpoint) and two are homogenised for cytokine analysis. Data shown is the % inhibition of the induction window between naïve animals and vehicle animals, where higher inhibition implies closer to the non-diseased, naïve, phenotype.

[2] = Hepatic microsomal stability, rat; assay type: in vitro ADME; conditions: pooled liver microsomes, read-out: Mean intrinsic clearance
Experimental: • Microsomal stability assays were performed with incubations of test compounds at 0.1 μM (n=2, final DMSO concentration 0.25%), and carried out using pooled human, […], rat and Cynomolgus macaque hepatic microsomes from Xenotech (Lots 1210153, 0810143 and 1110042, respectively) at 0.25 mg protein/mL in the presence of cofactor, NADPH. The incubations were performed at 37° C. with 100 μL aliquots taken from the incubation, at 0, 2, 5, 10 and 20 minutes (and, in the case of Cynomolgus macaque hepatic microsomes, 40 minutes) and reactions terminated by addition of 100 μL of acetonitrile containing carbamazepine as analytical internal standard. […] Half-life values were calculated from the relationship T1/2 (min)=−0.693/λ • where λ was the slope of the Ln concentration vs time curve. • The in vitro intrinsic clearance, Clint (mL/min/kg), was calculated and scaled to hepatic extraction ratios using the following scaling parameters and formulae.
Formulae Clint(tissue clearance) mL/min/kg=[0.693/t½ (min)]×[1/microsomal protein concentration mg/mL]×[mg microsomes/g liver]×[g liver/kg body weight] […] Half-life values were calculated from the relationship T1/2 (min)=−0.693/λ • where λ was the slope of the Ln concentration vs time curve. • Standard compounds testosterone, midazolam and 4-methylumbelliferone are included in the assay design.

c-Src = c-Src (Homo sapiens (Human), UniProt P12931); assay: c-Src enzyme inhibition (FRET); assay type: biochemical
Sequence of c-Src (P12931 whole entry, looked up): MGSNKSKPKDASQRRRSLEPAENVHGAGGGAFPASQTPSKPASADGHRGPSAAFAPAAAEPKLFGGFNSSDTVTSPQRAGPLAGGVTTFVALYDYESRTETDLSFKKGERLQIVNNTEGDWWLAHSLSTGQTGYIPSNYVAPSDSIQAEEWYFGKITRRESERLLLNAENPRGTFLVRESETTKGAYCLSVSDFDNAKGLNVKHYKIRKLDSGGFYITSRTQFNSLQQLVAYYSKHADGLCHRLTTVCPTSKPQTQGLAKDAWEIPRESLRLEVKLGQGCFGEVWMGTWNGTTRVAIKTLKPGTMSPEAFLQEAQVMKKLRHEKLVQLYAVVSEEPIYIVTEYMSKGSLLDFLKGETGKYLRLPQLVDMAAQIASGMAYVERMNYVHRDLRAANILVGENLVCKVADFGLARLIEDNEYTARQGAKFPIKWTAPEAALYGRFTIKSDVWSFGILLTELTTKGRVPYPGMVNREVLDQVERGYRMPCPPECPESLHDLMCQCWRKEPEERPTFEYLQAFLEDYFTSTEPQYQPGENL
In short: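 Z-LYTE FRET peptide assay: c-Src (3000 ng/mL) or Syk (2000 ng/mL) preincubated 2 h at room temperature with compound (4–0.004 μg/mL working solutions). Reaction was 1 h with peptide (8 μM solution) and ATP (800 μM c-Src, 60 μM Syk solutions), followed by 1 h protease development. Phosphorylation was read as the coumarin/fluorescein emission ratio.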

B-Raf = B-Raf (Homo sapiens (Human), UniProt P15056); assay: KINOMEscan enzyme binding assay, B-Raf
Sequence of B-Raf (P15056 whole entry): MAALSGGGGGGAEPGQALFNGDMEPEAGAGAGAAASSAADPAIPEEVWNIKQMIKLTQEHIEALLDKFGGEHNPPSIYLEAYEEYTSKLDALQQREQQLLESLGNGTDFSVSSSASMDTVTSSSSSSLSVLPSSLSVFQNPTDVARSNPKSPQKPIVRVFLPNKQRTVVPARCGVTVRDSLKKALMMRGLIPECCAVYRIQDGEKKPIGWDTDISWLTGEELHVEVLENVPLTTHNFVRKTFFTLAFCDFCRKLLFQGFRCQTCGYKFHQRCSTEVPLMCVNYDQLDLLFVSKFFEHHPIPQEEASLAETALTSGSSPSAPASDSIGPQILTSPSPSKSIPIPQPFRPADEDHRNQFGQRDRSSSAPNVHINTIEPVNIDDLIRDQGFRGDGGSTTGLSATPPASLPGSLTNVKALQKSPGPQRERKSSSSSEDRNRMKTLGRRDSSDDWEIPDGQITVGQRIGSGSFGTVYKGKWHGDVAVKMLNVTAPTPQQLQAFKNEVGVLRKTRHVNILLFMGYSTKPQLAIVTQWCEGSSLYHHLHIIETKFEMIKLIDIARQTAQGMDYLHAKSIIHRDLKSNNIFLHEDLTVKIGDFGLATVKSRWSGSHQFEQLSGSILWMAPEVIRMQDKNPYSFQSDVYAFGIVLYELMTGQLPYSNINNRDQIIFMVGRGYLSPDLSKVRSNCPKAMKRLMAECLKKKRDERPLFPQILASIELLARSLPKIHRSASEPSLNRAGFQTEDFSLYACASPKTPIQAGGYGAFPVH
Experimental: Kinase enzyme binding activities of compounds disclosed herein may be determined using a proprietary assay which measures active site-directed competition binding to an immobilized ligand (Fabian, M. A. et al., Nature Biotechnol., 2005, 23:329-336). These assays may be conducted by DiscoverX (formerly Ambit; San Diego, Calif.). The percentage inhibition produced by incubation with a test compound may be calculated relative to the non-inhibited control.

microsomal CLint at 0.1 μM [2]: 199 µL/min/mg | IC50 (c-Src): 11 nM | effect on the binding of B-Raf to its standard ligand (B-Raf): did not have any effect
Compound: C#Cc1cc(Nc2nccc(Oc3ccc(NC(=O)Nc4cc(C(C)(C)C)nn4-c4ccc(C)cc4)c4ccccc34)n2)cc(C(=O)NCCOCCOCCOC)c1 [Example 2, 3-((4-((4-(3-(3-(tert-Butyl)-1-(p-tolyl)-1H-pyrazol-5-yl)ureido)naphthalen-1-yl)oxy)pyrimidin-2-yl)amino)-5-ethynyl-N-(2-(2-(2-methoxyethoxy)ethoxy)ethyl)-benzamide]
IC50 (Naïve CD4+ T cells): 2.7 nM | % Inhibition of colon weight:length ([1]; 0.04 mg/kg BID oral): 25%# | % inhibition of IL-8 release ([1]; 0.04 mg/kg BID oral): 34%# | % inhibition of overall histopathology score ([1]; 0.04 mg/kg BID oral): 2% | % Inhibition of colon weight:length ([1]; 0.2 mg/kg BID oral): 23% | % inhibition of IL-8 release ([1]; 0.2 mg/kg BID oral): 39% | % inhibition of overall histopathology score ([1]; 0.2 mg/kg BID oral): 5% | % Inhibition of colon weight:length ([1]; 1 mg/kg BID oral): 43%# | % inhibition of IL-8 release ([1]; 1 mg/kg BID oral): 36%# | % inhibition of overall histopathology score ([1]; 1 mg/kg BID oral): 33% | % Inhibition of colon weight:length ([1]; 5 mg/kg BID oral): 61%* | % inhibition of IL-8 release ([1]; 5 mg/kg BID oral): 90%# | % inhibition of overall histopathology score ([1]; 5 mg/kg BID oral): 46%

From patent US10301288B2, “Kinase inhibitors” (Topivert Pharma Limited, priority 2013, dated 2019)
